Source: patent US20260262643A1, “HERBICIDAL BENZOXAZINES” (FMC CORPORATION, priority 2022, published 2026)

What was measured:
barnyardgrass [1] = experiment: Test C preemergence; assay type: in vivo, Echinochloa crusgalli; conditions: for Plant response rating, Barnyardgrass: Preemergence; for Barnyardgrass plant response rating: preemergence
How it was run: (§1)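 Pre: seeds in loam/sand, directed soil spray. Post: 1–2 leaf plants, 2–10 cm. Cmpd in non-phytotoxic solvent + surfactant. Greenhouse 10 d; visual rating vs untreated, 0 = none, 100 = complete control.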

blackgrass [2] = experiment: Test C preemergence; assay type: in vivo, Alopecurus myosuroides; conditions: for Plant response rating, Blackgrass: Preemergence; for Blackgrass plant response rating: preemergence
How it was run: as §1

corn [3] = experiment: Test C preemergence; assay type: in vivo, Zea mays; conditions: for Plant response rating, Corn: Preemergence; for Corn plant response rating: preemergence
How it was run: as §1

green foxtail [4] = experiment: Test C preemergence; assay type: in vivo, Setaria viridis; conditions: for Plant response rating, Foxtail, Green: Preemergence; for Foxtail, Green plant response rating: preemergence
How it was run: as §1

kochia [5] = experiment: Test C preemergence; assay type: in vivo, Bassia scoparia; conditions: for Plant response rating, Kochia: Preemergence; for Kochia plant response rating: preemergence
How it was run: as §1

oat, wild [6] = experiment: Test C preemergence; assay type: in vivo, Avena fatua; conditions: for Plant response rating, Oat, Wild: Preemergence; for Oat, Wild plant response rating: preemergence
How it was run: as §1

pigweed, palmer [7] = experiment: Test C preemergence; assay type: in vivo, Amaranthus palmeri; conditions: for Plant response rating, Pigweed, Palmer: Preemergence; for Pigweed, Palmer plant response rating: preemergence
How it was run: as §1

ragweed [8] = experiment: Test C preemergence; assay type: in vivo, Ambrosia artemisiifolia; conditions: for Plant response rating, Ragweed: Preemergence; for Ragweed plant response rating: preemergence
How it was run: as §1

ryegrass, Italian [9] = experiment: Test C preemergence; assay type: in vivo, Lolium multiflorum; conditions: for Plant response rating, Ryegrass, Italian: Preemergence; for Ryegrass, Italian plant response rating: preemergence
How it was run: as §1

soybean [10] = experiment: Test C preemergence; assay type: in vivo, Glycine max; conditions: for Plant response rating, Soybean: Preemergence; for Soybean plant response rating: preemergence
How it was run: as §1

wheat [11] = experiment: Test C preemergence; assay type: in vivo, Triticum aestivum; conditions: for Plant response rating, Wheat: Preemergence; for Wheat plant response rating: preemergence
How it was run: as §1

barnyardgrass [12] = experiment: Test C postemergence; assay type: in vivo, Echinochloa crusgalli; conditions: 10 days
How it was run: as §1

blackgrass [13] = experiment: Test C postemergence; assay type: in vivo, Alopecurus myosuroides; conditions: 10 days
How it was run: as §1

corn [14] = experiment: Test C postemergence; assay type: in vivo, Zea mays; conditions: 10 days
How it was run: as §1

green foxtail [15] = experiment: Test C postemergence; assay type: in vivo, Setaria viridis; conditions: 10 days
How it was run: as §1

kochia [16] = experiment: Test C postemergence; assay type: in vivo, Bassia scoparia; conditions: 10 days
How it was run: as §1

oat, wild [17] = experiment: Test C postemergence; assay type: in vivo, Avena fatua; conditions: 10 days
How it was run: as §1

pigweed, palmer [18] = experiment: Test C postemergence; assay type: in vivo, Amaranthus palmeri; conditions: 10 days
How it was run: as §1

ragweed [19] = experiment: Test C postemergence; assay type: in vivo, Ambrosia artemisiifolia; conditions: 10 days
How it was run: as §1

ryegrass, Italian [20] = experiment: Test C postemergence; assay type: in vivo, Lolium multiflorum; conditions: 10 days
How it was run: as §1

soybean [21] = experiment: Test C postemergence; assay type: in vivo, Glycine max; conditions: 10 days
How it was run: as §1

wheat [22] = experiment: Test C postemergence; assay type: in vivo, Triticum aestivum; conditions: 10 days
How it was run: as §1

galium = experiment: Test C postemergence; assay type: in vivo, Galium aparine; conditions: 10 days
How it was run: as §1

horseweed = experiment: Test C postemergence; assay type: in vivo, Erigeron canadensis; conditions: 10 days
How it was run: as §1

barnyardgrass [23] = experiment: Test D flooded paddy test; assay type: in vivo, Echinochloa crus-galli; conditions: 250 g ai/ha, applied to paddy water, visual rating after 13 to 14 days, scale 0 to 100 (0 no effect, 100 complete control)
How it was run: (§2)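 Seedlings reached the 2-leaf stage, then pots were flooded to 3 cm over the soil surface. Compound was applied into the water, depth was maintained, and plants stayed in the greenhouse 13 to 14 days before visual scoring (0–100) relative to controls.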

ducksalad = experiment: Test D flooded paddy test; assay type: in vivo, Heteranthera limosa; conditions: 250 g ai/ha, applied to paddy water, visual rating after 13 to 14 days, scale 0 to 100 (0 no effect, 100 complete control)
How it was run: as §2

rice = experiment: Test D flooded paddy test; assay type: in vivo, Oryza sativa; conditions: 250 g ai/ha, applied to paddy water, visual rating after 13 to 14 days, scale 0 to 100 (0 no effect, 100 complete control)
How it was run: as §2

sedge, umbrella = experiment: Test D flooded paddy test; assay type: in vivo, Cyperus difformis; conditions: 250 g ai/ha, applied to paddy water, visual rating after 13 to 14 days, scale 0 to 100 (0 no effect, 100 complete control)
How it was run: as §2

[24] = 500 g ai/ha, visual rating after 10 days, 0 to 100 scale (0 no effect, 100 complete control)
[25] = Test C, 125 g ai/ha, 0 to 100 scale (0 no effect, 100 complete control)
[26] = 125 g ai/ha, postemergence, 0 to 100 scale, 0 no effect, 100 complete control
[27] = Postemergence, 500 g ai/ha, visual 0 to 100 scale (0 no effect, 100 complete control)
[28] = 500 g ai/ha, 0 to 100 scale (0 no effect, 100 complete control)
[29] = 125 g ai/ha, 0 to 100 scale, 0 no effect, 100 complete control
[30] = 500 g ai/ha, postemergence, 0 to 100 scale (0 no effect, 100 complete control)
[31] = Postemergence, 125 g ai/ha, 0 to 100 scale (0 no effect, 100 complete control)

SMILES: CCc1ncn(-c2ccc(C)c(C(=O)N3C[C@H](COC)Oc4c(Cl)cccc43)c2)n1 [Compound 265]
- Plant response rating, Barnyardgrass (barnyardgrass [1]; [24]): 90
- Barnyardgrass plant response rating (barnyardgrass [1]; [25]): 90
- Plant response rating, Blackgrass (blackgrass [2]; [24]): 90
- Blackgrass plant response rating (blackgrass [2]; [25]): 70
- Plant response rating, Corn (corn [3]; [24]): 90
- Corn plant response rating (corn [3]; [25]): 30
- Plant response rating, Foxtail, Green (green foxtail [4]; [24]): 100
- Foxtail, Green plant response rating (green foxtail [4]; [25]): 100
- Plant response rating, Kochia (kochia [5]; [24]): 90
- Kochia plant response rating (kochia [5]; [25]): 80
- Plant response rating, Oat, Wild (oat, wild [6]; [24]): 90
- Oat, Wild plant response rating (oat, wild [6]; [25]): 60
- Plant response rating, Pigweed, Palmer (pigweed, palmer [7]; [24]): 100
- Pigweed, Palmer plant response rating (pigweed, palmer [7]; [25]): 100
- Plant response rating, Ragweed (ragweed [8]; [24]): 70
- Ragweed plant response rating (ragweed [8]; [25]): 50
- Plant response rating, Ryegrass, Italian (ryegrass, Italian [9]; [24]): 90
- Ryegrass, Italian plant response rating (ryegrass, Italian [9]; [25]): 80
- Plant response rating, Soybean (soybean [10]; [24]): 90
- Soybean plant response rating (soybean [10]; [25]): 70
- Plant response rating, Wheat (wheat [11]; [24]): 80
- Wheat plant response rating (wheat [11]; [25]): 70
- Plant response rating, Barnyardgrass (barnyardgrass [12]; [26]): 70
- Plant response rating, Barnyardgrass (barnyardgrass [12]; [27]): 100
- Plant response rating, Blackgrass (blackgrass [13]; [26]): 90
- Plant response rating, Blackgrass (blackgrass [13]; [27]): 90
- Plant response rating, Corn (corn [14]; [26]): 60
- Plant response rating, Corn (corn [14]; [27]): 70
- Plant response rating, Foxtail, Green (green foxtail [15]; [26]): 90
- Plant response rating, Foxtail, Green (green foxtail [15]; [27]): 90
- Plant response rating, Kochia (kochia [16]; [26]): 90
- Plant response rating, Kochia (kochia [16]; [27]): 100
- Plant response rating, Oat, Wild (oat, wild [17]; [26]): 30
- Plant response rating, Oat, Wild (oat, wild [17]; [27]): 80
- Plant response rating, Pigweed, Palmer (pigweed, palmer [18]; [26]): 70
- Plant response rating, Pigweed, Palmer (pigweed, palmer [18]; [27]): 100
- Plant response rating, Ragweed (ragweed [19]; [26]): 80
- Plant response rating, Ragweed (ragweed [19]; [27]): 90
- Plant response rating, Ryegrass, Italian (ryegrass, Italian [20]; [26]): 80
- Plant response rating, Ryegrass, Italian (ryegrass, Italian [20]; [27]): 90
- Plant response rating, Soybean (soybean [21]; [26]): 100
- Plant response rating, Soybean (soybean [21]; [27]): 100
- Plant response rating, Wheat (wheat [22]; [26]): 40
- Plant response rating, Wheat (wheat [22]; [27]): 70
- Plant response rating, Galium (galium; [26]): 100
- Plant response rating, Galium (galium; [27]): 100
- Plant response rating, Horseweed (horseweed; [26]): 40
- Plant response rating, Horseweed (horseweed; [27]): 60
- Plant response rating, Barnyardgrass (Flood) (barnyardgrass [23]): 30
- Plant response rating, Ducksalad (Flood) (ducksalad): 75
- Plant response rating, Rice (Flood) (rice): 25
- Plant response rating, Sedge, Umbrella (Flood) (sedge, umbrella): 90

SMILES: CCOC[C@H]1CN(C(=O)c2cc(-n3cnc(CC)n3)cc3c2OCCO3)c2cccc(Cl)c2O1 [Compound 387]
- Barnyardgrass plant response rating (barnyardgrass [1]; [28]): 100
- Plant response rating, Barnyardgrass (barnyardgrass [1]; [29]): 50
- Blackgrass plant response rating (blackgrass [2]; [28]): 20
- Plant response rating, Blackgrass (blackgrass [2]; [29]): 0
- Corn plant response rating (corn [3]; [28]): 30
- Plant response rating, Corn (corn [3]; [29]): 0
- Foxtail, Green plant response rating (green foxtail [4]; [28]): 100
- Plant response rating, Foxtail, Green (green foxtail [4]; [29]): 50
- Kochia plant response rating (kochia [5]; [28]): 100
- Plant response rating, Kochia (kochia [5]; [29]): 20
- Oat, Wild plant response rating (oat, wild [6]; [28]): 70
- Plant response rating, Oat, Wild (oat, wild [6]; [29]): 40
- Pigweed, Palmer plant response rating (pigweed, palmer [7]; [28]): 100
- Plant response rating, Pigweed, Palmer (pigweed, palmer [7]; [29]): 100
- Ragweed plant response rating (ragweed [8]; [28]): 100
- Plant response rating, Ragweed (ragweed [8]; [29]): 80
- Ryegrass, Italian plant response rating (ryegrass, Italian [9]; [28]): 80
- Plant response rating, Ryegrass, Italian (ryegrass, Italian [9]; [29]): 60
- Soybean plant response rating (soybean [10]; [28]): 100
- Plant response rating, Soybean (soybean [10]; [29]): 90
- Wheat plant response rating (wheat [11]; [28]): 30
- Plant response rating, Wheat (wheat [11]; [29]): 10
- Plant response rating, Barnyardgrass (barnyardgrass [12]; [30]): 60
- Plant response rating, Barnyardgrass (barnyardgrass [12]; [31]): 20
- Plant response rating, Blackgrass (blackgrass [13]; [30]): 90
- Plant response rating, Blackgrass (blackgrass [13]; [31]): 60
- Plant response rating, Corn (corn [14]; [30]): 70
- Plant response rating, Corn (corn [14]; [31]): 10
- Plant response rating, Foxtail, Green (green foxtail [15]; [30]): 80
- Plant response rating, Foxtail, Green (green foxtail [15]; [31]): 40
- Plant response rating, Kochia (kochia [16]; [30]): 100
- Plant response rating, Kochia (kochia [16]; [31]): 80
- Plant response rating, Oat, Wild (oat, wild [17]; [30]): 20
- Plant response rating, Oat, Wild (oat, wild [17]; [31]): 0
- Plant response rating, Pigweed, Palmer (pigweed, palmer [18]; [30]): 100
- Plant response rating, Pigweed, Palmer (pigweed, palmer [18]; [31]): 90
- Plant response rating, Ragweed (ragweed [19]; [30]): 80
- Plant response rating, Ragweed (ragweed [19]; [31]): 70
- Plant response rating, Ryegrass, Italian (ryegrass, Italian [20]; [30]): 80
- Plant response rating, Ryegrass, Italian (ryegrass, Italian [20]; [31]): 40
- Plant response rating, Soybean (soybean [21]; [30]): 100
- Plant response rating, Soybean (soybean [21]; [31]): 100
- Plant response rating, Wheat (wheat [22]; [30]): 30
- Plant response rating, Wheat (wheat [22]; [31]): 10
- Plant response rating, Galium (galium; [30]): 100
- Plant response rating, Galium (galium; [31]): 100
- Plant response rating, Horseweed (horseweed; [30]): 60
- Plant response rating, Horseweed (horseweed; [31]): 50
- Plant response rating, Barnyardgrass (Flood) (barnyardgrass [23]): 25
- Plant response rating, Ducksalad (Flood) (ducksalad): 20
- Plant response rating, Rice (Flood) (rice): 10
- Plant response rating, Sedge, Umbrella (Flood) (sedge, umbrella): 70
